Literature values, collected in patent US6703389B2, “Method of treating chronic pain” (Pharmacia & Upjohn Company, priority 1999, dated 2004).

Legend:
[1] = literature (Leonard 1997)
[2] = mice, literature (Brunello and Racagni 1998)
[3] = tested on: norepinephrine reuptake compared to serotonin reuptake; conditions: rat brain synaptosomes, literature

SMILES | effect in the 8-OH-DPAT hypothermia test [1] | effect on resperine-induced blepharospasm and hypothermia [2] | pharmacological selectivity for inhibiting norepinephrine reuptake compared to serotonin reuptake, ratio of Ki values [3]
CCOc1ccccc1OC(c1ccccc1)C1CNCCO1 (racemic) [Reboxetine, 2-[(2-ethoxyphenoxy)(phenyl)methyl]morpholine] | ineffective | prevent | 
CNCC(O)CC12CCC(c3ccccc31)c1ccccc12 (stereo not drawn) [oxaprotiline] |  |  | about 4166
